# Entries after “also recorded” stand apart in the source; their conditions may differ. Where two headings read alike, the source gives them in different places.
# Key:
# wild type C. elegans = assay: Paralysis assay on agar plates, wild type C. elegans; format: in vivo, Caenorhabditis elegans
# [1] = tested on: 5-HT quint animals (C. elegans lacking all previously identified 5-HT receptors); assay: Paralysis assay, quintuple 5-HT receptor null C. elegans (5-HT quint); format: in vivo, Caenorhabditis elegans; settings: for effect on locomotion: 5-HT quint, 5-HT
# [2] = biological target: C. elegans 5-HT1-like receptor SER-4 (Caenorhabditis elegans, UniProt G5EGH0); assay: in vivo; format: in vivo; settings: for effect on locomotion: SER-4 in cholinergic motor neurons; for activity from observations of nematode locomotion: FIGS. 9A-9B
# [3] = biological target: T1, Drosophila 5-HT1 orthologue (5HT1A) (Drosophila melanogaster, UniProt P28285); assay: Paralysis assay, 5-HT quint expressing Drosophila 5-HT1 orthologue in cholinergic motor neurons; format: in vivo
# T1 sequence (P28285 1-834): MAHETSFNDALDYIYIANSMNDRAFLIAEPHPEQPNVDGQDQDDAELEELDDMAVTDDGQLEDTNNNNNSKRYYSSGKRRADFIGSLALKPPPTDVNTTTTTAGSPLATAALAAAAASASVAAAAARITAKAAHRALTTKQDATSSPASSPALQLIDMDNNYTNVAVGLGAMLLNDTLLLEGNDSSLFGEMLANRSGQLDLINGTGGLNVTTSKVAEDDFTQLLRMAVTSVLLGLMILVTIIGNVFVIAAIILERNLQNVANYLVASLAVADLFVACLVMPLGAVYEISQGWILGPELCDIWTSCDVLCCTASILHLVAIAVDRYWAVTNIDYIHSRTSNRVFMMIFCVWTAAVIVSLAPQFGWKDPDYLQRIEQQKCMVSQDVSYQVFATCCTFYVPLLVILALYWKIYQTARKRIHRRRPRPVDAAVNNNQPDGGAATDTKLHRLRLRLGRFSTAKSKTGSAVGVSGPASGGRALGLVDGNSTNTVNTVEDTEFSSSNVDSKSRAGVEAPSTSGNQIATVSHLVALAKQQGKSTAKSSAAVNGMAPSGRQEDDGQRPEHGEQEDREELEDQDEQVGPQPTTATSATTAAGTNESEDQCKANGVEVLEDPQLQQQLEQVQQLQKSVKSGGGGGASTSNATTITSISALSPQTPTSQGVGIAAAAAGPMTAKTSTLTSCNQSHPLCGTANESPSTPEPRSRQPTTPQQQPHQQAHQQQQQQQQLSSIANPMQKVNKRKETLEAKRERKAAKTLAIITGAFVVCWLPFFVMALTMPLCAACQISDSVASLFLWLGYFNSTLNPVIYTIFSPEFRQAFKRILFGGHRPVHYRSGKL
# [4] = biological target: T2, human 5-HT1A receptor (HTR1A) (Homo sapiens, UniProt P08908); assay: Paralysis assay, 5-HT quint expressing human 5-HT1A receptor in cholinergic motor neurons; format: in vivo, Caenorhabditis elegans
# T2 construct: GFP (C); clone ID: 9020250
# T2 sequence (P08908 1-422): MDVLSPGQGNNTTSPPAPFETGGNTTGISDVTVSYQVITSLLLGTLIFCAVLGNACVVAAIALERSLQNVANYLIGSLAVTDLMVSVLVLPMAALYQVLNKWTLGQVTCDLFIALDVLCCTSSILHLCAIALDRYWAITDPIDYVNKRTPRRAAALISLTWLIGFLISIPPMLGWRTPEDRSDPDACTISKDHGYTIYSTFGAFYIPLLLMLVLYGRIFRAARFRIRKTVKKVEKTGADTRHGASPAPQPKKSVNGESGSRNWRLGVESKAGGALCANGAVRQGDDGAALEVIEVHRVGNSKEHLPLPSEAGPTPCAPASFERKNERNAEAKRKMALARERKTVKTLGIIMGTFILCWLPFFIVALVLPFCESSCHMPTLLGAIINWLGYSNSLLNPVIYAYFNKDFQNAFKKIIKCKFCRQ
# bus-17 (e2800) mutants = assay: whole plant or invertebrate; format: in vivo; settings: Caenorhabditis elegans, 10 min, read-out: EC50 of 5-HT-dependent paralysis
# [5] = biological target: H. contortus (Hco) MOD-1 orthologue (Haemonchus contortus, UniProt M9MR50); assay: in vivo
# [6] = tested on: flea (Ctenocephalides felis); assay: Flea (FF) membrane feed assay (adult); format: in vivo; settings: adult fleas fed treated blood, 24 hours, lowest dose causing mortality ≧50%
# Procedure: For the flea (FF) membrane feed assay (adult), compounds were dissolved in DMSO and aliquots were added to citrated bovine blood in membrane covered wells warmed to 37° C. Adult fleas were newly emerged (3-7 days) and unfed. Feeding wells containing approximately 10 adult fleas were placed onto the treated blood wells, and the fleas were allowed to feed on the treated blood for 24 hours. […] Each compound was tested at half-log intervals, and endpoint data was recorded as Minimum Effective Concentration (MEC) in μM. MEC is a subjective visual assessment of organism viability, and is the lowest dose to cause mortality ≧50%.
# [7] = tested on: heartworm (Dirofilaria immitis) microfilaria; assay: Heartworm (HW) motility assay (microfilaria); format: in vivo; set-up: activity against heartworm: dose or concentration left out as unconfirmed; settings: for HW (n = 2 mean), minimum efficacious dose (MED): microfilaria, 72 hour incubation, >50% decrease in motility
# Procedure: For the heartworm (HW) motility assay (microfilaria), compounds were dissolved in DMSO and half log dilutions were placed into individual wells. […] […] The data reported is minimum efficacious dose (MED), which is the lowest concentration where there was a >50% decrease in motility compared to the DMSO controls.
# [8] = tested on: Haemonchus contortus exsheathed L3 larvae; assay: Gastrointestinal nematode (HC) motility assay (exsheathed L3); format: in vivo; settings: exsheathed L3, 96 hours, >50% decrease in motility
# Procedure: For the gastrointestinal nematode (HC) motility assay ([…]3), compounds were dissolved in DMSO and half log dilutions were placed into individual wells. To each well was added approximately 100 Haemonchus contortus […]3 larvae in a buffered nutrient media containing glucose and antibiotic panel resulting in a final concentration curve ranging from 100 μM to 1 nM. […] The data reported is minimum efficacious dose (MED), which is the lowest concentration where there was a >50% decrease in motility compared to the DMSO controls.
# [9] = tested on: C. elegans 5-HT1-like receptor SER-4; assay: in vivo; format: in vivo, Caenorhabditis elegans; settings: paralysis screen, FIGS. 9A-9B
# [10] = biological target: H. contortus (Hco) LGC-55 orthologue (Haemonchus contortus, UniProt D7F471); assay: in vivo
# [11] = tested on: TA quad animals (lack all previously identified TA receptors); assay: Paralysis assay, quadruple TA receptor null C. elegans (TA quad); format: in vivo, Caenorhabditis elegans
# [12] = biological target: C. elegans LGC-55 (TA-gated Cl- channel) (Caenorhabditis elegans, UniProt G5EEC1); assay: Paralysis assay, TA quad expressing C. elegans LGC-55
# [13] = tested on: Drosophila histamine-gated Cl- channel (HisCl1)
# [14] = exogenous 5-HT (1 mM), hypotonic
# Sequence of C. elegans 5-HT1-like receptor SER-4 (Caenorhabditis elegans, UniProt G5EGH0) (G5EGH0 entry or part of it): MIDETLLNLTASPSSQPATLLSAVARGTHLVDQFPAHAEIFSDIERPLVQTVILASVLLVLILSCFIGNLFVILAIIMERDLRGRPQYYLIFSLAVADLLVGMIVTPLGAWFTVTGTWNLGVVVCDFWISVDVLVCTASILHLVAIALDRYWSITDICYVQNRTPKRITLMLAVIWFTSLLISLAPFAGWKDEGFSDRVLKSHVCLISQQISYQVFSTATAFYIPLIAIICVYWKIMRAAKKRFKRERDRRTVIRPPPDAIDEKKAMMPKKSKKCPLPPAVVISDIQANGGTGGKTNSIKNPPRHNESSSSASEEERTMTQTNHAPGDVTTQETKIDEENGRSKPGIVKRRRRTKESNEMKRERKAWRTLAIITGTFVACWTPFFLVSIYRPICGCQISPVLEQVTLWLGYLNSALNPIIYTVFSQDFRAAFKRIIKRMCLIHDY
# Sequence of C. elegans LGC-55 (TA-gated Cl- channel) (G5EEC1 entry or part of it): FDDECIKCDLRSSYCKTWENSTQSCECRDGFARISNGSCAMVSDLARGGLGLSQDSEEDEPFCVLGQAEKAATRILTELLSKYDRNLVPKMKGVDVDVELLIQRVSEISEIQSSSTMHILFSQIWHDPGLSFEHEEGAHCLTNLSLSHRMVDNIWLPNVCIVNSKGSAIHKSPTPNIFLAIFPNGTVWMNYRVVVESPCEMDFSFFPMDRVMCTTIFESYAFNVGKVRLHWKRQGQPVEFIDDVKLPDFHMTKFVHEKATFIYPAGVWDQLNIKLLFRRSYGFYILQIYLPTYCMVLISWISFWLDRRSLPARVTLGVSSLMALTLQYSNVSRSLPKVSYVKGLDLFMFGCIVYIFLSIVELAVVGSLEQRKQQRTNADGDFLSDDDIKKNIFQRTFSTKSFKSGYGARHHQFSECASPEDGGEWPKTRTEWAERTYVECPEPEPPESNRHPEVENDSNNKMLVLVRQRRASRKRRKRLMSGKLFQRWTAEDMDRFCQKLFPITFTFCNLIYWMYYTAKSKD
# Sequence of H. contortus (Hco) MOD-1 orthologue (M9MR50 entry or part of it): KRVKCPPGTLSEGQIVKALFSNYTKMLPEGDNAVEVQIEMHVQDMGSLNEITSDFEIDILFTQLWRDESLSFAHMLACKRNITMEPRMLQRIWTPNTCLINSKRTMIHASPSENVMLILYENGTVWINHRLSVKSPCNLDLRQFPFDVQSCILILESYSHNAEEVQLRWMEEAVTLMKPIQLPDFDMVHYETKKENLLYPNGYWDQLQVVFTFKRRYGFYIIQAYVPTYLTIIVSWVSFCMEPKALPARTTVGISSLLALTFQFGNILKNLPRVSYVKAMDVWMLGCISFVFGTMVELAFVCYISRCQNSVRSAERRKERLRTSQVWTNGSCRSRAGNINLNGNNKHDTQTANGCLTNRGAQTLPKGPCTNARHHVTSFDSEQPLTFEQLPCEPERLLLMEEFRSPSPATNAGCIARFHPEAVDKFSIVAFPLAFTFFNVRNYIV
# Sequence of H. contortus (Hco) LGC-55 orthologue (D7F471 entry or part of it): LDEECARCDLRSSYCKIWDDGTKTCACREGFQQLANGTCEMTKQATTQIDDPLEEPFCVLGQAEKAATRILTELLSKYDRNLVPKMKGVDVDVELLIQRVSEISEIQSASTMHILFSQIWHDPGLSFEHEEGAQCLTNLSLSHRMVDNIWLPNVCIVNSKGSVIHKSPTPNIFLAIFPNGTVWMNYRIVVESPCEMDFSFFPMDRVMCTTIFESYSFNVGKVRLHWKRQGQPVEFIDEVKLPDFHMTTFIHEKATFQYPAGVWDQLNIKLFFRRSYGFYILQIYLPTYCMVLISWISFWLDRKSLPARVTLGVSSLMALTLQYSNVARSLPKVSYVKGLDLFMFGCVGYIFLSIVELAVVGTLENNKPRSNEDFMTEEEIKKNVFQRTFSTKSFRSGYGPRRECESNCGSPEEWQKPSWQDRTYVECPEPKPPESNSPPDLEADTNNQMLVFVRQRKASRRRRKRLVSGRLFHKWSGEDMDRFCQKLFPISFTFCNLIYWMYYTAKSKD
compound,measurement,setting,value
"NCCc1c[nH]c2ccc(O)cc12 [5-HT, Serotonin]",paralysis,"wild type C. elegans; 1 mM 5-HT, 10 min exposure, hypotonic non-NGM agar",50%
same,paralysis,"wild type C. elegans; 15 mM 5-HT, NGM agar plates",rapid paralysis
same,EC50,"wild type C. elegans; Caenorhabditis elegans, 10 min, isotonic NGM agar plates, 10 min, read-out: EC50 of 5-HT-dependent paralysis",11500 µM
same,EC50,"wild type C. elegans; Caenorhabditis elegans, hypotonic (agar alone without NGM, salt-free), read-out: EC50 of 5-HT-dependent paralysis",~400 µM
same,EC50,"wild type C. elegans; hypotonic (agar alone without NGM, salt-free), read-out: EC50 of 5-HT-dependent paralysis",~500 µM
same,EC50,"wild type C. elegans; isotonic NGM agar plates, 10 min, read-out: EC50 of 5-HT-dependent paralysis",~12000 µM
same,effect on locomotion,[1]; NGM agar plates,no effect on locomotion
same,effect on locomotion,[1]; hypotonic non-NGM agar plates,no effect on locomotion
same,paralysis,"[2]; 5-HT quint expressing SER-4 in AIB interneurons (Pnpr-9), 5-HT (1 mM), hypotonic",rapidly paralyzed
same,paralysis,"[2]; 5-HT quint expressing SER-4 in cholinergic motor neurons (Punc-17β), 5-HT (1 mM), hypotonic",rapidly paralyzed
same,paralysis,"[2]; SER-4 quad (ser-5;mod-1;ser-7 ser-1 quadruple null), 15 mM 5-HT, NGM agar plates",rapid paralysis
same,locomotion,[3]; [14],dramatically inhibited
same,locomotion,[4]; [14],dramatically inhibited
same,EC50,bus-17 (e2800) mutants,~240 µM
same,EC50,[5],~200 µM
"CCCN(CCC)C1CCc2cccc(O)c2C1 (stereo not shown) [8-OH-DPAT, 8-hydroxy-2-(di-n-propylamino) tetralin]",effect on locomotion,"[2]; 8-OH-DPAT at 2 mM, hypotonic",no effect on locomotion
same,effect on locomotion,"[3]; 8-OH-DPAT at 2 mM, hypotonic",no effect on locomotion
same,paralysis,"[4]; 8-OH-DPAT (2 mM), hypotonic",rapidly paralyzed
"CSCCC(NC(=O)C(Cc1ccc(O)cc1)NC(=O)Cc1c[nH]c2ccccc12)C(=O)NC(C)C(=O)O [CD3-276, N-[(Indol-3)acetyl]-D-Tyrosyl-Methionyl-D-alanine]","FF (n = 2 mean), Minimum Effective Concentration (MEC)",[6],>100 µg/mL
same,activity against heartworm,[7],inactive
same,"HW (n = 2 mean), minimum efficacious dose (MED)",[7],>100 µg/mL
same,"HC (n = 2 mean), minimum efficacious dose (MED)",[8],>100 µg/mL
O=C(/C=C/c1c[nH]c2ccccc12)c1ccccc1 [CD3-664],"FF (n = 2 mean), Minimum Effective Concentration (MEC)",[6],>100 µg/mL
same,activity against heartworm,[7],active against heartworm
same,"HW (n = 2 mean), minimum efficacious dose (MED)",[7],100 µg/mL
same,"HC (n = 2 mean), minimum efficacious dose (MED)",[8],>100 µg/mL
"O=C(/C=C/c1c[nH]c2ccc(O)cc12)c1ccncc1 [CD3-718, trans-3-(5-hydroxy-1H-indol-3-yl)-1-(4-pyridinyl)-2-propen-1-one]",paralysis,wild type C. elegans; 15 minutes exposure,causing paralysis
same,paralysis,"[1]; 5-HT quint animals, 15 minutes exposure",not in animals that do not express any previously identified 5-HT receptors
same,paralysis,"[2]; animals expressing the nematode 5-HT1 receptor (SER-4), 15 minutes exposure",causing paralysis
same,selectivity for C. elegans 5-HT1 versus human 5-HT1,[9],remarkable selectivity; also recorded: remarkably selective
same,"FF (n = 2 mean), Minimum Effective Concentration (MEC)",[6],>100 µg/mL
same,activity against heartworm,[7],inactive
same,"HW (n = 2 mean), minimum efficacious dose (MED)",[7],>100 µg/mL
same,"HC (n = 2 mean), minimum efficacious dose (MED)",[8],>100 µg/mL
COc1ccc2[nH]c(C)c(/C=C/C(=O)c3ccncc3)c2c1 [CD3-719],activity from observations of nematode locomotion,[2],decreased activity
CCCc1[nH]c2ccc(OC)cc2c1/C=C/C(=O)c1ccncc1 [CD3-980],activity from observations of nematode locomotion,[2],at least moderate activity with favorable species selectivity
COc1ccc2[nH]c(CC(C)C)c(/C=C/C(=O)c3ccncc3)c2c1 [CD3-984],activity from observations of nematode locomotion,[2],at least moderate activity with favorable species selectivity
"Nc1ccc(CCN2CCN(c3cccc(C(F)(F)F)c3)CC2)cc1 [PAPP, p-amino-phenethyl-m-trifluoromethylphenyl piperazine]",EC50,"wild type C. elegans; Caenorhabditis elegans, 0.25 h, 15 min exposure, hypotonic, read-out: EC50 of PAPP-dependent paralysis",370 µM
same,EC50,"[1]; Caenorhabditis elegans, 0.25 h, read-out: EC50 of PAPP-dependent paralysis",680 µM
same,EC50,[2],170 µM
"NCCc1ccc(O)cc1 [TA, tyramine]",EC50,[10],~100 µM
same,effect on locomotion,[11],no effect on locomotion
same,EC50,[12],~100 µM
"Cl.Cl.NCCc1c[nH]cn1 [histamine, histamine dihydrochloride]",paralysis,"wild type C. elegans; 2 mM histamine, NGM plates",did not cause paralysis
same,paralysis,"[13]; 2 mM histamine, NGM plates",did not cause paralysis
same,paralysis,"[13]; 2 mM histamine, hypotonic assay conditions",caused significance paralysis
same,paralysis,"[13]; 10 mM histamine, NGM plates",caused significance paralysis
"CNS(=O)(=O)Cc1ccc2[nH]cc(CCN(C)C)c2c1 [sumatriptan, sumatriptan succinate]",effect on locomotion,"wild type C. elegans; 0.5 mM sumatriptan, hypotonic",no effect on locomotion
same,effect on locomotion,[2]; 0.5 mM sumatriptan,no effect on locomotion
same,effect on locomotion,[3]; 0.5 mM sumatriptan,no effect on locomotion
same,effect on locomotion,[4]; 0.5 mM sumatriptan,no effect on locomotion
same,paralysis,[4]; sumatriptan at higher concentrations (1 mM),failed to fully paralyze

# — patent publication US20170311599A1, “Target for Anthelmintic Development, and Anthelmintics Utilizing the Same” (The University of Toledo, priority 2016, published 2017)
